ChEMBL document CHEMBL3393042, “Synthesis and photophysical characterization of quasi push-pull dicyanodibenzodioxins and their anti-tumor activity against glioma cell line C6” (Bioorg Med Chem Lett, 2015)
The source made the active and inactive calls. No cut-off for these calls is given here.

Tested on: C6
Assay: Cytotoxicity against rat C6 cells assessed as cell viability at 2 to 50 uM after 24 hrs by MTT assay
Format: functional, cell-based

SMILES: N#Cc1cc2c(cc1C#N)Oc1cc([N+](=O)[O-])ccc1O2
- Activity: inactive

SMILES: N#Cc1cc2c(cc1C#N)Oc1cc(Br)ccc1O2
- Activity: Active

SMILES: N#Cc1cc2c(cc1C#N)Oc1ccccc1O2
- Activity: Active
